Assay results published in patent US11767298B2, “Substituted benzimidazoles as inhibitors of transforming growth factor-β kinase” (Duke University, priority 2016, dated 2023).
Several values for one entry are separate records, joined by “and”; a condition that tells them apart may be missing. Equal values may be shown once. Read-outs that look alike come from different tables or passages of the source. Blank lines part the entries; values can stand above or below the molecule they belong to.

Key:
GFP-PfPK9 = GFP-PfPK9 (Plasmodium falciparum, UniProt Q8IEG4); experiment: ATP-competitive binding assay (ATP-sepharose pull-down, FLECS)
Chain of GFP-PfPK9 (Q8IEG4 entry or part of it): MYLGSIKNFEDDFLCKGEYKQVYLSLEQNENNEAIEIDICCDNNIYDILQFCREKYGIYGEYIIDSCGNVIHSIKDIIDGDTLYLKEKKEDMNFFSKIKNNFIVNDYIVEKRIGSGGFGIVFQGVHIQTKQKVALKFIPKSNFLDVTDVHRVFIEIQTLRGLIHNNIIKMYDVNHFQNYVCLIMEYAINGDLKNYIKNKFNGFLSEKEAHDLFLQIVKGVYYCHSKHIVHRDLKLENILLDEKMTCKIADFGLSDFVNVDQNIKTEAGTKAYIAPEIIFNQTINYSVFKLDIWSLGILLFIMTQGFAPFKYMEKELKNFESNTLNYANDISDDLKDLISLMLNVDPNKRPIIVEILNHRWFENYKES
Protocol: Primary small-molecule screen. A small-molecule screen was performed similar to a previously reported fluorescence linked enzyme chemoproteomic strategy (FLECS). Briefly, HEK293-GFP-PfPK9 cells were grown in 182-cm^2 tissue culture flasks (Genesee Scientific) and harvested at ˜80% cell confluency. Before assays the culture medium was aspirated, cells were rinsed with ice cold PBS and then they were removed with a cell scraper. Cells were pelleted by centrifugation (2,000 rpm, 4° C., 2 min) and immediately lysed for assays. The pellet was suspended in buffer A (25 mM HEPES, pH 7.4, 150 mM NaCl, 60 mM MgCl2, 1 mM DTT) with 1 μM microcystin, 0.1% Triton X-100 plus a Roche Complete protease inhibitor tablet and then placed on ice for 30 min to facilitate lysis. The supernatant was collected after centrifugation (4,300 rpm, 4° C., 5 min) and used in subsequent screening and titrations experiments. For screening, the supernatant was added to ATP-sepharose beads (1:1) and incubated with agitation at 4° C. for at least 1 hr to allow binding. Following this incubation, the mixture was centrifuged, the ATP resin was washed with 9 column volumes of buffer A with 1 M NaCl and then 9 column volumes of buffer A. The ATP-sepharose medium was reconstituted as a 1:1 slurry with buffer A and then added to 96-well filter plates (50 μL/well) (Corning #3505) using a multichannel pipette (Rainin). The filter plate was on top of black 96-well catch plates (Corning #3915). An ATP dilution series (1-200 mM) was added to each plate as a positive control and DMSO was the negative control. Compounds and controls were all added to 50 μL per well in buffer A. For screening, compounds were tested in singlicate at 500 μM. The final DMSO concentration in every well was 5%. The fluorescence intensity in each well was measured on an EnVision system. Data analyses of screens were carried out in EXCEL (Microsoft, Corp.) and actives were identified as 2×background signal.
All screening positives that were verified with Western blot analysis were purchased from Enamine or Vitas-M laboratory. The purity of compounds 1-5 (shown below) was verified by high-resolution MS (Agilent). Compounds were tested in 8-point dose-response (0-500 μM) experiments in duplicate, essential as described above. The fluorescence intensity in each well was measured using an EnVision system. Dose-response analysis was performed with GraphPad Prism to acquire EC50 values. Determined EC50 values were used to calculate the observed PfPK9 Kd and reported values are the average of 2-3 independent experiments.
Stable cell line generation. The P. falciparum PK9 gene (PlasmoDB accession #PF3D7_1315100) was cloned into the pEGFP-C1 mammalian expression vector (Clontech) in frame with a […] GFP tag. For screening, HEK293 cells were transfected with the resulting PfPK9-pEGFP-C1 vector to generate HEK293-GFP-PfPK9 expressing cells using X-tremeGENE HP transfection reagent (Roche) per the manufacturer instructions. Briefly, the culture medium was replaced at 48 hours post-transfection with medium supplemented with 1 mg/mL G418 sulfate (Life Technologies) to select for stably transfected cells. Following stable cell selection, fluorescence activated cell sorting (FACS) was used to enrich for GFP-PfPK9 expressing cells. Subsequently, FACS sorted HEK293-GFP-PfPK9 cells were cultured with medium supplemented with 0.5 mg/mL G418 sulfate for all following experiments. Protein expression was verified by Western blot analysis probing for anti-GFP and by fluorescence intensity using an EnVision (PerkinElmer) system.
All 14 positive molecules were also tested for their binding affinity to PfPK9 using an optimized ATP-competitive binding assay. EC50 values ranging from low μM to low mM were observed and these EC50 values were used to derive dissociation constants as described previously. […]

TAK1-TAB1 = molecular target: T1, TAK1-TAB1 (Homo sapiens, UniProt O43318); experiment: TAK1-TAB1 kinase assay ([32P]-ATP); assay type: biochemical; settings: compared to 206 (FIG. 14)
T1 sequence (O43318 with tags, fused parts or gaps limits assumed): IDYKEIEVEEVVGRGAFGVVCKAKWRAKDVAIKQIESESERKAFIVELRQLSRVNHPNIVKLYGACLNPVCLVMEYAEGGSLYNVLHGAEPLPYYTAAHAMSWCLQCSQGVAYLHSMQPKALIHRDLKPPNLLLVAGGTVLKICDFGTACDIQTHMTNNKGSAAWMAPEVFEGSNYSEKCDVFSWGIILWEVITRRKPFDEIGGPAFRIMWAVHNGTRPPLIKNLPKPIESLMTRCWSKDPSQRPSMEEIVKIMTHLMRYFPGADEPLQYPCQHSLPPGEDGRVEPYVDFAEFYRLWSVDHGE
Protocol: Kinase Assay. […] In brief, TAK1-TAB1 (50 ng/well) was incubated with 5 μM ATP containing radiolabeled [^32P]-ATP in the presence of 300 μM substrate peptide ([…]) in a final volume of 40 μl in the presence of buffer (containing 50 mM Tris pH 7.5, 0.1 mM EGTA, 0.1% β-Mercaptoethanol, 10 mM magnesium acetate, 0.5 mM MnCl) and indicated compounds. The reaction was let go for 10 min and stopped with 10 μl concentrated H3PO4. The remaining activity was measured using a scintillation counter. Dose-response curves were repeated 3 times. For kinetic mechanistic studies, experiments were repeated two times and averaged.
A challenge in designing chemical biology probes lies in choosing an appropriate ligand for a protein target and developing chemistry that allows attachment of a linker without disrupting activity of the ligand. […] The focus was on modifying the aminobenzimidazole moiety.

P. berghei [1] = experiment: Liver stage parasite load, luciferase-expressing P. berghei in HepG2 cells; assay type: cell-based, Plasmodium berghei ANKA; settings: HepG2 host cells
Protocol: (§1) Cell-based anti-Plasmodium assays. For liver stage assays, 15,000 HepG2 or 8,000 Huh7 cells/well were added to 384-well microtiter plates using a multichannel pipette (Rainin). After 2 hours at 37° C., compounds (0-100 μM) were added to cells in duplicate or triplicate in a final concentration of 1% DMSO. DMSO was used as the negative control. Following compound incubation at 37° C. for ˜1 hr, harvested luciferase-expressing P. berghei ANKA sporozoites were added to the plates at a density of 3,000 sporozoites/well. P. berghei ANKA sporozoites were obtained from harvesting the salivary glands of infected A. stephensi mosquitoes. The plates were spun for 10 min at 1,000 rpm, and then incubated at 37° C. for ˜45 hrs. […] After ˜45 hours at 37° C., liver cell viability was assessed using CellTiter-Fluor (Promega) and then parasite load was determined using Bright-Glo (Promega). The relative fluorescence and luminescence signal intensity of each well was evaluated with an EnVision System. The luminescence signal in the presence of compounds was normalized to the negative control (DMSO). Dose-response analysis was performed with GraphPad Prism to yield the reported EC50 values.
(§2) Anti-Plasmodium activity was evaluated in the parasite's liver stage using a previously reported high-throughput assay. In this assay, luciferase-expressing P. berghei (murine) parasites are used to infect human hepatoma cells (HepG2) and parasite load is assessed with a luminometer subsequent to evaluating HepG2 viability using a commercially available quantification kit that measures intracellular protease activity.
(§3) Specifically, their ability to inhibit P. berghei infection in two human hepatoma cell lines (HepG2 and Huh7) as well as cytotoxicity against HepG2 and Huh7 cells was determined as described above. Liver cell cytotoxicity was evaluated with two different commercially available assays, one that tests for intracellular protease activity with a fluorescence reporter and another that relies on the luminescent detection of total ATP.

P. berghei [2] = experiment: Liver stage parasite load, luciferase-expressing P. berghei in Huh7 cells; assay type: cell-based, Plasmodium berghei ANKA; settings: Huh7 host cells, read-out: IC50 Liver state (Huh7)
Protocol: as §1, §3

HepG2 cells = experiment: HepG2 cell viability / cytotoxicity; assay type: cell-based, human
Protocol: as §1, §2, §3

Huh7 cells = experiment: Huh7 cell viability / cytotoxicity; assay type: cell-based, human
Protocol: as §1, with “After 2 hours at 37° C., compounds (0-100 μM) were added to cells in duplicate or triplicate in a final concentration of 1% DMSO.” left out
as §3

[3] = GFP-PfPK9, Kd calculated from EC50 of ATP pull-down dose-response, read-out: Kd, app
[4] = Plasmodium berghei, HepG2, parasite load
[5] = Plasmodium berghei, Huh-7, parasite load

activity / potency in TAK1 kinase assay (TAK1-TAB1): did not show activity
SMILES: NC(=O)c1cccc(C(=O)/N=c2\[nH]c3cc(Br)ccc3s2)c1 [HS-232]

activity / potency in TAK1 kinase assay (TAK1-TAB1): slight reduction in potency
SMILES: CCCn1/c(=N/C(=O)c2cccc(C(N)=O)c2)[nH]c2ccc(/C=C/C(=O)O)cc21 [HS-233]

activity / potency in TAK1 kinase assay (TAK1-TAB1): slight reduction in potency
SMILES: CCCn1/c(=N/C(=O)c2cccc(C(N)=O)c2)[nH]c2cc(/C=C/C(=O)O)ccc21 [HS-234]

activity / potency in TAK1 kinase assay (TAK1-TAB1): slight reduction in potency
SMILES: CCCn1/c(=N/C(=O)c2cccc(C(N)=O)c2)[nH]c2cc(/C=C/C(=O)OC)ccc21 [HS-235]

Second part, the molecule before the results:

SMILES: Nc1ncnc2c1ncn2[C@@H]1O[C@H](COP(=O)(O)OP(=O)(O)OP(=O)(O)O)[C@@H](O)[C@H]1O [ATP, reference compound]
Kd (GFP-PfPK9; native substrate, read-out: apparent Kd of ATP for GFP-PfPK9): ~400 µM

SMILES: CCCn1c(NC(=O)c2nn(-c3ccccc3)cc2OC)nc2ccccc21 [compound 2]
Kd (GFP-PfPK9; [3]): ~7 µM and 7 µM
IC50 (P. berghei [1]; [4]): 4.5 µM
IC50 (P. berghei [2]; [5]): 0.09 µM
cytotoxic effect on cell viability vs DMSO control (HepG2 cells; HepG2, 30 μM): significant cytotoxic effect
cytotoxic effect on cell viability vs DMSO control (Huh7 cells; 30 μM): significant cytotoxic effect

SMILES: CCCn1c(NC(=O)c2cncn2-c2ccc(F)cc2)nc2ccccc21 [compound 3]
Kd (GFP-PfPK9; [3]): 0.6 µM
IC50 (P. berghei [1]; [4]): 7.3 µM
IC50 (P. berghei [2]; [5]): 4 µM
cytotoxicity in HepG2 cells (HepG2 cells; concentration not given): moderate cytotoxicity

SMILES: O=C(Nc1cccc2cnccc12)C1CCCN(c2cnccn2)C1 (stereo not drawn) [compound 4]
Kd (GFP-PfPK9; [3]): 3.2 µM
IC50 (P. berghei [1]; [4]): 55 µM
IC50 (P. berghei [1]; parasite load): 54.5 µM
IC50 (P. berghei [2]; [5]): 33 µM
IC50 (P. berghei [2]; parasite load): 33.3 µM
effect on liver cell viability (HepG2 cells; HepG2, concentrations up to 200 μM): neither compound 4 or 5 had any significant effects on cell viability
effect on liver cell viability (Huh7 cells; concentrations up to 200 μM): neither compound 4 or 5 had any significant effects on cell viability
